The test system of data set [1] is PBMC. Briefly: Cytotoxicity against PHA-stimulated human PBMC assessed as reduction in cell viability at 20 uM by WST-1 cell proliferation assay. Format: cell-based. A general note: Tetrazolium dyes change colour on reduction, which living cells bring about.
A short description of data set [2]: Cytotoxicity against PHA-stimulated human PBMC assessed as reduction in cell viability at 50 uM by WST-1 cell proliferation assay. The format is cell-based.

`COC[C@@H]1[C@@H](c2ccc(OC)c(OC)c2)[C@H]2c3c(c4ccccc4n(C)c3=O)OC(C)(C)[C@@H]12`: in data set [1], the Activity entry is “Non-toxic”. Besides, the inhibition – broadly, the drop in the measured response relative to a control, in per cent – at 50 µM in data set [2] stood at 30%.

The values are drawn from ChEMBL document CHEMBL3259572, “Euodenine A: a small-molecule agonist of human TLR4” (J Med Chem, 2014).
